Measured values as given in patent publication US20250290117A1, “MOLECULAR PHENOTYPIC ANTIMICROBIAL SUSCEPTIBILITY TESTING” (priority 2024, published 2025).

What was measured:
Assay type in all cases: cell-based
[1] = tested on: pathogens of clinical samples; assay: Molecular phenotypic antimicrobial susceptibility test of clinical samples, direct PCR without a separate DNA purification step (Table 6)
Summary of the method: (§1)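 Growth of clinical isolates under antimicrobials held at breakpoint concentrations was scored by semi-quantitative PCR against drug-free control wells. Exposure ran 12-16 hours from a 0.5 McFarland inoculum.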

[2] = tested on: pathogens of clinical samples; assay: Molecular phenotypic antimicrobial susceptibility test of clinical samples, extraction DNA purification step prior to PCR (Table 6)
Summary of the method: as §1

Escherichia coli = assay: Traditional culture-based antimicrobial susceptibility test
Summary of the method: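 E. coli isolates underwent conventional growth, isolation and exposure to antimicrobials, giving a culture-based susceptibility call for each agent.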

[3] = E. coli, clinical sample of r10-r24
[4] = E. coli, clinical sample of r10-r24, Ct control avg 12.97
[5] = E. coli, clinical sample of r158-r172
[6] = E. coli, clinical sample of r158-r172, Ct control avg 12.894
[7] = K. aerogenes, clinical sample of r136-r150
[8] = K. aerogenes, clinical sample of r136-r150, Ct control avg 13.854
[9] = K. pneumoniae, clinical sample of r121-r135
[10] = K. pneumoniae, clinical sample of r121-r135, Ct control avg […]
[11] = M. morganii, clinical sample of r55-r69
[12] = M. morganii, clinical sample of r55-r69, Ct control avg 12.09
[13] = M. morganii, clinical sample of r70-r84
[14] = M. morganii, clinical sample of r70-r84, Ct control avg 11.677
[15] = P. mirabilis, clinical sample of r25-r39
[16] = P. mirabilis, clinical sample of r25-r39, Ct control avg 11.801
[17] = P. mirabilis, clinical sample of r40-r54
[18] = P. mirabilis, clinical sample of r40-r54, Ct control avg 10.06
[19] = E. coli, clinical sample of r10-r24, Ct Control Avg 18.112
[20] = E. coli, clinical sample of r158-r172, Ct Control Avg 20.146
[21] = K. aerogenes, clinical sample of r136-r150, Ct Control Avg 19.994
[22] = K. pneumoniae, clinical sample of r121-r135, Ct Control Avg 24.272
[23] = M. morganii, clinical sample of r55-r69, Ct Control Avg 28.86
[24] = M. morganii, clinical sample of r70-r84, Ct Control Avg 27.053
[25] = P. mirabilis, clinical sample of r25-r39, Ct Control Avg 26.064
[26] = P. mirabilis, clinical sample of r40-r54, Ct Control Avg 26.987
[27] = S. aureus, clinical sample of r85-r92

Piperacillin/Tazobactam
Molecular Antibiotic Susceptibility Result [1, 3]: Sensitive (Antimicrobial wells with pathogen load detected below the control wells (typically >2 cycle thresholds later) may be reported as Sensitive) | Ct [1, 4]: 24.816 | Molecular Antibiotic Susceptibility Result [1, 5]: Sensitive (Antimicrobial wells with pathogen load detected below the control wells (typically >2 cycle thresholds later) may be reported as Sensitive) | Ct [1, 6]: 29.34 | Molecular Antibiotic Susceptibility Result [1, 7]: Sensitive (Antimicrobial wells with pathogen load detected below the control wells (typically >2 cycle thresholds later) may be reported as Sensitive) | Ct [1, 8]: 30.839 | Molecular Antibiotic Susceptibility Result [1, 9]: Sensitive (Antimicrobial wells with pathogen load detected below the control wells (typically >2 cycle thresholds later) may be reported as Sensitive) | Ct [1, 10]: 28.974 | Molecular Antibiotic Susceptibility Result [1, 11]: Sensitive (Antimicrobial wells with pathogen load detected below the control wells (typically >2 cycle thresholds later) may be reported as Sensitive) | Ct [1, 12]: 13.986 | Molecular Antibiotic Susceptibility Result [1, 13]: Sensitive (Antimicrobial wells with pathogen load detected below the control wells (typically >2 cycle thresholds later) may be reported as Sensitive) | Ct [1, 14]: 28.975 | Molecular Antibiotic Susceptibility Result [1, 15]: Sensitive (Antimicrobial wells with pathogen load detected below the control wells (typically >2 cycle thresholds later) may be reported as Sensitive) | Ct [1, 16]: 30.658 | Molecular Antibiotic Susceptibility Result [1, 17]: Sensitive (Antimicrobial wells with pathogen load detected below the control wells (typically >2 cycle thresholds later) may be reported as Sensitive) | Ct [1, 18]: 30.24 | Molecular Antibiotic Susceptibility Result [2, 3]: Sensitive (Antimicrobial wells with pathogen load detected below the control wells (typically >2 cycle thresholds later) may be reported as Sensitive) | Ct [2, 19]: 26.499 | Molecular Antibiotic Susceptibility Result [2, 5]: Sensitive (Antimicrobial wells with pathogen load detected below the control wells (typically >2 cycle thresholds later) may be reported as Sensitive) | Ct [2, 20]: 30.693 | Molecular Antibiotic Susceptibility Result [2, 7]: Sensitive (Antimicrobial wells with pathogen load detected below the control wells (typically >2 cycle thresholds later) may be reported as Sensitive) | Ct [2, 21]: 32.586 | Molecular Antibiotic Susceptibility Result [2, 9]: Sensitive (Antimicrobial wells with pathogen load detected below the control wells (typically >2 cycle thresholds later) may be reported as Sensitive) | Ct [2, 22]: 34.274 | Molecular Antibiotic Susceptibility Result [2, 11]: Sensitive (Antimicrobial wells with pathogen load detected below the control wells (typically >2 cycle thresholds later) may be reported as Sensitive) | Ct [2, 23]: 36.138 | Molecular Antibiotic Susceptibility Result [2, 13]: Sensitive (Antimicrobial wells with pathogen load detected below the control wells (typically >2 cycle thresholds later) may be reported as Sensitive) | Ct [2, 24]: Undet | Molecular Antibiotic Susceptibility Result [2, 15]: Sensitive (Antimicrobial wells with pathogen load detected below the control wells (typically >2 cycle thresholds later) may be reported as Sensitive) | Ct [2, 25]: 28.92 | Molecular Antibiotic Susceptibility Result [2, 17]: Sensitive (Antimicrobial wells with pathogen load detected below the control wells (typically >2 cycle thresholds later) may be reported as Sensitive) | Ct [2, 26]: 33.895 | Traditional Culture Results (Escherichia coli; E. coli #1 - WDCM 00090 - 6.2×E3): Sensitive | Traditional Culture Results (Escherichia coli; E. coli #2 - WDCM 00090 - 6.2×E3): Sensitive | Traditional Culture Result (Escherichia coli; E. coli isolate 1 (Table 3)): Sensitive | Traditional Culture Result (Escherichia coli; E. coli isolate 2 (Table 3)): Sensitive | Traditional Culture Result (Escherichia coli; E. coli isolate 3 (Table 3)): Sensitive | Traditional Culture Result (Escherichia coli; E. coli isolate 4 (Table 3)): Sensitive | Traditional Culture Result (Escherichia coli; E. coli isolate 5 (Table 3)): Sensitive | Traditional Culture Result (Escherichia coli; E. coli isolate JJ1887): Sensitive

Trimethoprim/Sulfamethoxazole [TMP/SMX]
Molecular Antibiotic Susceptibility Result [1, 3]: Sensitive (Antimicrobial wells with pathogen load detected below the control wells (typically >2 cycle thresholds later) may be reported as Sensitive) | Ct [1, 4]: 24.066 | Molecular Antibiotic Susceptibility Result [1, 5]: Sensitive (Antimicrobial wells with pathogen load detected below the control wells (typically >2 cycle thresholds later) may be reported as Sensitive) | Ct [1, 6]: 28.739 | Molecular Antibiotic Susceptibility Result [1, 7]: Sensitive (Antimicrobial wells with pathogen load detected below the control wells (typically >2 cycle thresholds later) may be reported as Sensitive) | Ct [1, 8]: 30.511 | Molecular Antibiotic Susceptibility Result [1, 9]: Sensitive (Antimicrobial wells with pathogen load detected below the control wells (typically >2 cycle thresholds later) may be reported as Sensitive) | Ct [1, 10]: 29.719 | Molecular Antibiotic Susceptibility Result [1, 11]: Sensitive (Antimicrobial wells with pathogen load detected below the control wells (typically >2 cycle thresholds later) may be reported as Sensitive) | Ct [1, 12]: 22.916 | Molecular Antibiotic Susceptibility Result [1, 13]: Sensitive (Antimicrobial wells with pathogen load detected below the control wells (typically >2 cycle thresholds later) may be reported as Sensitive) | Ct [1, 14]: 22.281 | Molecular Antibiotic Susceptibility Result [1, 15]: Sensitive (Antimicrobial wells with pathogen load detected below the control wells (typically >2 cycle thresholds later) may be reported as Sensitive) | Ct [1, 16]: 23.476 | Molecular Antibiotic Susceptibility Result [1, 17]: Sensitive (Antimicrobial wells with pathogen load detected below the control wells (typically >2 cycle thresholds later) may be reported as Sensitive) | Ct [1, 18]: 25.628 | Molecular Antibiotic Susceptibility Result [1, 27]: Sensitive (Antimicrobial wells with pathogen load detected below the control wells (typically >2 cycle thresholds later) may be reported as Sensitive) | Ct ([1]; S. aureus, clinical sample of r85-r92, Ct control avg 20.309): 28.965 | Molecular Antibiotic Susceptibility Result [2, 3]: Sensitive (Antimicrobial wells with pathogen load detected below the control wells (typically >2 cycle thresholds later) may be reported as Sensitive) | Ct [2, 19]: 28.072 | Molecular Antibiotic Susceptibility Result [2, 5]: Sensitive (Antimicrobial wells with pathogen load detected below the control wells (typically >2 cycle thresholds later) may be reported as Sensitive) | Ct [2, 20]: 33.402 | Molecular Antibiotic Susceptibility Result [2, 7]: Sensitive (Antimicrobial wells with pathogen load detected below the control wells (typically >2 cycle thresholds later) may be reported as Sensitive) | Ct [2, 21]: 36.5 | Molecular Antibiotic Susceptibility Result [2, 9]: Sensitive (Antimicrobial wells with pathogen load detected below the control wells (typically >2 cycle thresholds later) may be reported as Sensitive) | Ct [2, 22]: 34.918 | Molecular Antibiotic Susceptibility Result [2, 11]: Sensitive (Antimicrobial wells with pathogen load detected below the control wells (typically >2 cycle thresholds later) may be reported as Sensitive) | Ct [2, 23]: Undet | Molecular Antibiotic Susceptibility Result [2, 13]: Sensitive (Antimicrobial wells with pathogen load detected below the control wells (typically >2 cycle thresholds later) may be reported as Sensitive) | Ct [2, 24]: 30.225 | Molecular Antibiotic Susceptibility Result [2, 15]: Sensitive (Antimicrobial wells with pathogen load detected below the control wells (typically >2 cycle thresholds later) may be reported as Sensitive) | Ct [2, 25]: 30.865 | Molecular Antibiotic Susceptibility Result [2, 17]: Sensitive (Antimicrobial wells with pathogen load detected below the control wells (typically >2 cycle thresholds later) may be reported as Sensitive) | Ct [2, 26]: 33.833 | Molecular Antibiotic Susceptibility Result [2, 27]: Sensitive (Antimicrobial wells with pathogen load detected below the control wells (typically >2 cycle thresholds later) may be reported as Sensitive) | Ct ([2]; S. aureus, clinical sample of r85-r92, Ct Control Avg 24.32): 27.399 | Traditional Culture Result (Escherichia coli; E. coli isolate 1 (Table 3)): Sensitive | Traditional Culture Result (Escherichia coli; E. coli isolate 2 (Table 3)): Sensitive | Traditional Culture Result (Escherichia coli; E. coli isolate 3 (Table 3)): Sensitive | Traditional Culture Result (Escherichia coli; E. coli isolate 4 (Table 3)): Resistant | Traditional Culture Result (Escherichia coli; E. coli isolate 5 (Table 3)): Sensitive | Traditional Culture Result (Escherichia coli; E. coli isolate JJ1887): Resistant
